Measurements: patent publication US20260092085A1, “SYNTHETIC TRIPLEX PEPTIDE NUCLEIC ACID-BASED INHIBITORS FOR CANCER THERAPY” (University of Connecticut, priority 2022, published 2026)
{RR} = two arginine residues at the PNA terminus

What was measured:
miR-155 [1] = test: miR-155 gene expression by RT-PCR in U2932 cells; type: cell-based, human; details: U2932, 500 nM, 48 hours, relative to scrambled control
Experimental: FIGS. 3A-F show cell culture-based functional assay in U2932 lymphoma cells. (3A) γtcPNA-155-TAMRA uptake in the U2932 lymphoma cell line: Representative flow cytometry traces of TAMRA fluorescence in U2932 cells after treatment with 500 nM dose of γtcPNA-155-TAMRA for 48 hours. The data was analyzed by FlowJo software. (3B) Normalized miR-155 gene expression levels in U2932 after treatment with phosphate buffer saline (PBS) as a control and with 500 nM dose of Scr-γtcPNA-155, PNA-155, γPNA-155 and γtcPNA-155 for 48 hours compared to average control U6 (n=3), data represented as mean±standard error mean (SEM), Statistical analysis was performed using Unpaired two-tailed t-test. Further, statistical analysis was performed relative to Scr-γtcPNA-155 treated cells. ***p<0.001. (3C) Gene expression level of miR-155 downstream genes, tumor suppressor proteins (FOXO3A, CUX1, SOCS1, CSF1R, JARID2, SHIP1, PICALM, PDCD4, BACH1, WEE1, TP53TG3, CASP3, PTEN) in U2932 cell line after treatment with PBS as a control and with after treatment with 500 nM of Scr-γtcPNA-155, PNA-155, γPNA-155 and γtcPNA-155 for 48 hours. Data is normalized with average GAPDH control (n=3), and represented as mean±SEM, *p<0.05. Unpaired two-tailed t-test was used for statistical analysis and analysis was performed relative to Scr-γtcPNA-155 treated cells. (3D) Gene expression level of miR-155 downstream genes MCL1 in U2932 cell line after treatment with PBS as a control and 500 nM of Scr-γtcPNA-155, PNA-155, γPNA-155 and γtcPNA-155 for 48 hours. Data is normalized with average GAPDH control (n=3), and represented as mean±SEM, *p<0.05, **p<0.01 and ***p<0.001. […] (3E) Representative western blot of Mcl-1 and its quantification (n=3 technical replicate) and (3F) Caspase-3 protein and its quantification (n=3 technical replicate) in U2932 cell line after treatment with 500 nM of Scr-γtcPNA-155, PNA-155 and γtcPNA-155 for 48 hours. […] Numbers above western blot panels represent relative quantification of the respective bands using ImageJ software and normalized relative to loading control and treatment control. […]

miR-155 [2] = test: miR-155 gene expression in U2932 tumor samples after in vivo treatment; set-up: species or system NSG mice; details: U2932 xenograft, intra-tumoral
Experimental: FIGS. 22A-D show in vivo gene expression and protein level analysis. (22A) miR-155 gene expression levels in U2932 tumor samples after in vivo treatment with indicated PNAs. Data was normalized with average control U6 (n=4, data represented as mean±standard error mean). ***p<0.001 (22B) Gene expression level of downstream target genes of miR-155: MCL1 in U2932 tumor samples after treatment with total 3 mg kg-1 dose of Scr-γtcPNA-155, PNA-155, γPNA-155 and γtcPNA-155 and normalized with average control GAPDH (n=3, data represented as mean±SEM), unpaired two-tailed t-test was performed for analysis). *p<0.05, **p<0.01 (22C) Representative western blot of Mcl-1 protein and its quantification (n=3 technical replicate) in U2932 tumor samples treated with total 3 mg kg-1 dose of Scr-γtcPNA-155, PNA-155 and γtcPNA-155. Data is represented as mean±SEM and unpaired two-tailed t-test was performed for analysis. *p<0.05. The relative protein levels were determined from the band intensity using ImageJ software and normalized relative to loading control and treatment control. (22D) Gene expression level of tumor suppressor proteins (FOXO3A, CUX1, SOCS1, CSF1R, JARID2, SHIP1, PICALM, PDCD4, BACH1, CASP3) in U2932 tumor samples after treatment with total 3 mg kg-1 dose of Scr-γtcPNA-155, PNA-155, γPNA-155 and γtcPNA-155 and normalized with average control GAPDH (n=3, data represented as mean±SEM, unpaired two-tailed t-test was performed for statistical analysis). *p<0.05, **p<0.01.
RNA and Protein extraction from tumor samples: The mice were injected intra-tumorally with 1 mg kg-1 dose of PNA-155, γtcPNA-155, γPNA-155, Scr-γtcPNA-155 or were untreated. The injections were repeated two additional times after 1 week each. The length, breadth, and depth of the tumors were measured daily using a vernier caliper. The mice were euthanized when the tumor volumes reached 2000 mm^3. The resected tumor sections were finely minced using a sterile blade and suspended in dissociation media (4 ml) comprising of RPMI-1640, 1.2 mg/ml dispase, and 0.5 mg/ml collagenase for 90 mins at 500 rpm at 37° C. The dissociated tumors were washed with buffer saline at 2500 rpm (4 mins) at 4° C. and then suspended in 0.25% trypsin for 4 mins at room temperature. RPMI 1640 media was added to the trypsinized tumor mass, and the cells were passed through a 70 um filter. The cells were centrifuged at 2500 rpm for 4 mins at 4° C. The cell pellet was then suspended in 1×RBC lysis buffer (Sigma) and incubated on ice for 10 mins. PBS was added to the cells and the cells were passed through a 40 um filter. The cells were centrifuged at 2500 rpm for 4 mins at 4° C. The cell pellet was resuspended in 0.5% BSA in PBS. […]

Row | Substance | miR-155 inhibition (miR-155 [1]) | decrease in miR-155 gene expression in tumors (miR-155 [2])
1 | PNA-155: conventional full-length regular PNA (23mer), RR-ACCCCTATCACGATTAGCATTAA-RR, SEQ ID NO: 1 (all peptide nucleic acid (PNA), 5' {RR}, 3' {RR}) [reference compound] | approximately 80% | 75%
2 | γtcPNA-155: serine gamma tail-clamp anti-miR-155 PNA, RR-TJJJJ-OOO-ACCCCTATCACGATTAGCATTAA-RR, SEQ ID NO: 3 (all peptide nucleic acid (PNA); serine gamma PNA, tail-clamp TJJJJ via linkers, Arg-Arg at both ends) | ~90% | 90%
